From US20210196899A1, “MICRONEEDLE COATED WITH DRUG AND MANUFACTURING METHOD FOR SAME” (SR BIOTEK INC., priority 2018, published 2021)
No end group written: not given here.

Tested on: Fibroblasts (CCD-986SK)
Test: Measurement of collagen content in cell line (Procollagen type I peptide EIA kit)
Type: cell-based
Conditions: FIG. 4
Protocol: The culture supernatant was collected and the amount of collagen was measured as described below according to the guidelines of the Ministry of Food and Drug Safety, and the results thereof are shown in FIG. 4.
100 μl of an antibody-PoD conjugate solution was placed in each well, after which the culture solution and a standard solution were added in an amount of 20 μL thereto and cultured at 37° C. for 3 hr. The culture solution was removed from the well, followed by washing four times with 400 μL of a phosphate-buffered saline (PBS). 100 μL of a color development reagent (Procollagen type I peptide EIA kit, Takara Biomedical Co.) was added thereto, followed by culture at room temperature for 15 min, addition with 100 μL of 1 N sulfuric acid, and measurement at 450 nm using an ELISA reader.

NCCCC[C@H](NC(=O)[C@H](Cc1c[nH]cn1)NC(=O)CNC(=O)CS)C(=O)O [GHK-TA]
collagen synthesis and promotion effects (concentration of 70 to 80 ppm, 24 hr): superior collagen synthesis and promotion effects

(EEMQRR)-TA: sulfhydryl-hexapeptide of Example 1-3-1-3; Chemical Formula 7 Glu-Glu-Met-Gln-Arg-Arg-X with linker X thioglycolic acid (TA) (EEMQRR-{thioglycolic acid})
collagen synthesis and promotion effects (thioglycolic acid (TA) as the linker compared to cysteine (CS) as the linker): superior collagen synthesis and promotion effects

KTTKS [reference compound]
collagen synthesis and promotion effects (50 to 200 ppm): increased in proportion to the concentration

KTTKS-TA: sulfhydryl KTTKS of Example 1-3-1-2; Chemical Formula 5 Lys-Thr-Thr-Lys-Ser-X with linker X thioglycolic acid (TA) (KTTKS-{thioglycolic acid})
collagen synthesis and promotion effects (50 to 200 ppm): vastly superior compared to KTTKS
